Results published in the supplement of paper PMC9663587.

Legend:
Experiment in all cases: area over the GR curve, 72 h; higher = more effect;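 further: Dye Drop or Deep Dye Drop imaging of viable cells in 384-well plates (Hoechst nuclei, LIVE/DEAD dye), nine half-log doses, GR normalized to DMSO controls and time-zero plates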
[1] = system: AU565
[2] = system: BT20
[3] = system: MDAMB361
[4] = system: HCC1395
[5] = system: SUM52PE
[6] = system: HCC202
[7] = system: SKBR3
[8] = system: SUM185PE
[9] = system: ZR7530
[10] = system: HCC1419
[11] = system: HCC1937
[12] = system: MDAMB330
[13] = system: UACC893

Compound	area over the GR curve [1]	area over the GR curve [2]	area over the GR curve [3]	area over the GR curve [4]	area over the GR curve [5]	area over the GR curve [6]	area over the GR curve [7]	area over the GR curve [8]	area over the GR curve [9]	area over the GR curve [10]	area over the GR curve [11]	area over the GR curve [12]	area over the GR curve [13]
COc1ccc2c(c1)[C@]1(C[C@H]1c1ccc3c(/C=C/c4ccc(CN5C[C@@H](C)O[C@@H](C)C5)cc4)n[nH]c3c1)C(=O)N2	0.725 GR	1.07 GR	0.425 GR	0.709 GR	0.516 GR	0.299 GR	0.711 GR	0.161 GR	0.509 GR	0.425 GR	0.655 GR	0.438 GR	0.416 GR
COc1cccc(OCCCN)c1-c1cc(Nc2cnc(C#N)cn2)n[nH]1	0.5 GR	0.973 GR	0.828 GR	0.832 GR	0.425 GR	0.332 GR	0.802 GR	0.167 GR	0.0681 GR	0.413 GR	0.55 GR	0.718 GR	0.171 GR
CC(=O)Nc1cccc(-n2c(=O)n(C3CC3)c(=O)c3c(Nc4ccc(I)cc4F)n(C)c(=O)c(C)c32)c1 (max 1 µM)	-0.0244 GR	0.176 GR	0.219 GR	0.185 GR	0.224 GR	0.237 GR	0.182 GR	-0.0188 GR	0.219 GR	0.285 GR	0.138 GR	0.218 GR	0.434 GR
CCc1cnn2c(NCc3ccc[n+]([O-])c3)cc(N3CCCC[C@H]3CCO)nc12 (max 1 µM)	0.857 GR	0.672 GR	0.593 GR	0.644 GR	0.491 GR	0.406 GR	0.835 GR	0.261 GR	0.713 GR	0.443 GR	0.475 GR	0.101 GR	0.67 GR
CC(=O)c1c(C)c2cnc(Nc3ccc(N4CCNCC4)cn3)nc2n(C2CCCC2)c1=O (max 3.162 µM)	0.296 GR	0.39 GR	0.473 GR	0.274 GR	0.201 GR	0.135 GR	0.285 GR	0.0458 GR	0.284 GR	0.208 GR	-0.0629 GR	0.47 GR	0.436 GR
CCc1cncnc1N1CCN(Cc2nc3ccc(C(F)(F)F)cc3[nH]2)CC1 (max 10 µM)	0.0402 GR	-0.0022 GR	0.0684 GR	0.0037 GR	0.0787 GR	0.0342 GR	0.0204 GR	0.144 GR	0.0942 GR	0.112 GR	0.039 GR	0.0392 GR	0.0713 GR
CCCCOc1c(C(=O)c2c(F)cc(C)cc2F)c[nH]c2nncc1-2 (max 10 µM)	0.514 GR	0.84 GR	0.56 GR	0.807 GR	0.464 GR	0.359 GR	0.541 GR	0.103 GR	0.481 GR	0.301 GR	0.917 GR	0.372 GR	0.519 GR
CCN1CCN(Cc2ccc(Nc3ncc(F)c(-c4cc(F)c5nc(C)n(C(C)C)c5c4)n3)nc2)CC1 (max 10 µM)	0.657 GR	0.569 GR	0.828 GR	0.562 GR	0.341 GR	0.277 GR	0.536 GR	0.254 GR	0.546 GR	0.433 GR	0.102 GR	0.722 GR	0.657 GR
CNc1nc(-c2ccc3c(N)n[nH]c3c2)cc(N2C[C@@H](C(=O)NC3CCCCC3)CC[C@H]2C)n1 (max 10 µM)	0.223 GR	0.0701 GR	0.636 GR	0.187 GR	0.124 GR	0.365 GR	0.318 GR	0.224 GR	0.408 GR	0.245 GR	0.146 GR	0.498 GR	0.137 GR
CO[C@@H](C)Cn1c(=O)n(C)c2cnc3ccc(-c4cncc(C(C)(C)O)c4)cc3c21 (max 10 µM)	0.793 GR	0.768 GR	1.47 GR	0.618 GR	0.75 GR	0.726 GR	0.824 GR	0.679 GR	0.726 GR	0.979 GR	0.485 GR	1.31 GR	0.992 GR
Cc1nn(C)c(COc2ccc(N3CCN(S(=O)(=O)N(C)C)CC3)cc2)c1-c1cccc2c(CCCOc3cccc4ccccc34)c(C(=O)O)n(CCN3CCOCC3)c12 (max 10 µM)	-0.0201 GR	-0.0396 GR	-0.0172 GR	-0.0037 GR	0.0586 GR	-0.005 GR	0.0389 GR	0.117 GR	0.0093 GR	0.0402 GR	0.006 GR	0.0479 GR	-0.0074 GR
CN(C)CC[C@H](CSc1ccccc1)Nc1ccc(S(=O)(=O)NC(=O)c2ccc(N3CCN(Cc4ccccc4-c4ccc(Cl)cc4)CC3)cc2)cc1[N+](=O)[O-] [ABT-737] (max 10 µM)	0.0543 GR	0.0208 GR	-0.0339 GR	-0.0157 GR	0.0757 GR	-0.0052 GR	-0.0209 GR	0.319 GR	-0.0351 GR	-0.0276 GR	0.0829 GR	0.189 GR	-0.0097 GR
C=CCn1c(=O)c2cnc(Nc3ccc(N4CCN(C)CC4)cc3)nc2n1-c1cccc(C(C)(C)O)n1 [AZD1775] (max 10 µM)	0.496 GR	0.198 GR	0.897 GR	0.886 GR	0.158 GR	0.579 GR	0.528 GR	0.212 GR	0.322 GR	0.238 GR	0.707 GR	0.655 GR	0.488 GR
CNC(=O)c1cccc(-c2ccc3c(N4CCOC[C@@H]4C)nc(N4CCOC[C@@H]4C)nc3n2)c1 [AZD2014] (max 10 µM)	0.757 GR	0.484 GR	1.2 GR	0.582 GR	0.682 GR	0.698 GR	0.87 GR	0.606 GR	0.749 GR	0.942 GR	0.52 GR	1.38 GR	0.845 GR
